Laboratory results published in US10945516B2, “Device mounted on mask pack, mask pack and kit comprising the same” (BIOSENSOR LABORATORIES INC., priority 2016, dated 2021).

Assays:
[1] = assay type: in vitro ADME; conditions: pig, 30 min, 0.5 mM
Protocol: In particular, first, frozen pig skin purchased from a slaughterhouse was left out at room temperature and thawed for 2 to 3 hours for preparation. Then, hair on the pig skin was removed, and the pig skin was stretched to have elasticity and fixed on a plate with pins. As an experimental group, the mask pack prepared according to an embodiment was applied to the pig skin for 30 minutes, and as a control group, a mask pack on which a RED battery was not mounted was applied to the pig skin for 30 minutes. 0.5 mM of Calcein (having a molecular weight of 622.55 g/mol, available from Sigma-Aldrich), which is a fluorescent agent, was used in a material-containing portion. Thereafter, the pig skin was prepared as samples and fixed for 24 hours by using a fixing solution of 4% paraformaldehyde (pH 7.4 at 4° C.). After the fixing, the samples were sufficiently washed with a PBS (pH 7.4) solution, and embedded with a Tissue-Tek O.C.T. compound (available from Sakura Finetek, USA) and rapidly cooled. The cooled samples were cut to a size of 7 um by using a cryomicrotome (Shandon Cryotome SME Cryostat, Shandon Scientific LTD, Cheshire, England). The cryomicrotomed tissue was washed with a PBS solution, mounted on a mounting solution, covered with a cover slip, and observed using a fluorescent microscope (Axio Observer Z1; Zeiss, Gottingen, Germany), and the results are shown in FIG. 11.

[2] = Degree of absorption of vitamin C by mouse skin from patch (HPLC); assay type: in vitro ADME; conditions: 12.5 mg per patch, 6 hours, hairless mouse back skin
Protocol: In particular, hairless mouse skin was used to measure a cumulative amount of vitamin C in skin of a mouse. As a control group, a preparation containing vitamin C in a general patch was used. As an experimental group, a preparation containing vitamin C in a patch using reverse electrodialysis was used. A cohesive hydrogel-type patch was prepared by using 3 w/v % Carbopol, and 0.5 mL of a vitamin C-containing cohesive hydrogel was loaded on the patch (an amount of vitamin C was 2.5 w/v %, and an amount of vitamin C loaded per patch was 12.5 mg). Back skin of a 5 week-old mouse (20 to 25 g) was taken, and the patch was mounted thereon. The patch was removed after being incubated for 6 hours, and the skin was carefully separated, quickly washed by using DDW and MeOH, and freeze-stored at −70° C. […] Amounts of vitamin C in the samples were measured by using high-performance liquid chromatography (HPLC) using a mixture of acetonitrile and 0.3 M of KH2PO4 (pH 4) at a ratio of 40:60 as a mobile phase, a Nucleosil NH2 (100 μm) column, a flow rate of 0.8 mL/min, an insertion volume of 20 μL, a UV wavelength of 264 nm, and a column temperature of 25° C., and the results are shown in FIG. 13.

amount of fluorescence that permeated into skin [1] [ng/cm^2] | amount permeated into skin [1] | increase of amount permeated into skin, reverse electrodialysis mask pack compared to passive diffusion [1] | locally remaining amounts of vitamin C of the epidermis layer and the dermis layer ([2]; control group general patch) | increase of locally remaining amounts of vitamin C of the epidermis layer and the dermis layer relative to control group ([2]; reverse electrodialysis patch vs general patch) | SMILES
0.47 | about 0.05 ng/cm^2 | about 7 times |  |  | O=C(O)CN(CC(=O)O)Cc1cc2c(cc1O)Oc1cc(O)c(CN(CC(=O)O)CC(=O)O)cc1C21OC(=O)c2ccccc21 [Calcein]
 |  |  | small | about 3 times | O=C1O[C@H]([C@@H](O)CO)C(O)=C1O [vitamin C]
